Reference: patent US20250353873A1, “COMPOUNDS AND METHODS FOR MODULATING APOE EXPRESSION” (Ionis Pharmaceuticals, Inc., priority 2024, published 2025)
Strand notation (5' to 3'): a small letter for the sugar, then the base; units joined by * are phosphorothioate-linked, units joined directly phosphodiester-linked; [ ] holds rarer units or linkages, { } end groups; capitals alone tell only the bases. [ms] = mesyl phosphoramidate linkage; e = 2'-O-(2-methoxyethyl) (MOE); [5mC] = 5-methylcytosine; d = 2'-deoxy (DNA)

Tests used:
human APOE RNA [1] = experiment: Activity in APOE C57BL/6NTac-Apoeem7250 knock-in mice, single ICV bolus, 8 weeks (Example 11); format: in vivo; details: single ICV bolus 300 μg, 8 weeks post treatment, normalized to mouse Ppia
Experimental: (§1) Modified oligonucleotides described above were tested in the APOE C57BL/6NTac-Apoeem7250 knock-in mouse model described above.
Each mouse received a single ICV bolus of 300 μg of modified oligonucleotide. A group of 3-4 mice received a single ICV bolus with PBS as a negative control.
Eight weeks post treatment, mice were sacrificed and RNA was extracted from cortical brain tissue and spinal cord for quantitative real-time RT-PCR analysis of RNA expression of APOE using human primer probe set RTS3073 (described herein above). APOE RNA levels were normalized to mouse Ppia. Mouse Ppia was amplified using primer probe set m_cyclo24 (described herein above). Results are presented as percent human APOE RNA relative to the amount of human APOE RNA in PBS treated animals, (% control). Each experiment is identified in separate tables below.

human APOE RNA [2] = experiment: Activity in APOE C57BL/6NTac-Apoeem7250 knock-in mice, single ICV bolus, 16 weeks (Example 12); format: in vivo; details: single ICV bolus 300 μg, 16 weeks post treatment, normalized to mouse Ppia
Experimental: as §1
APOE C57BL/6NTac-Apoeem7250 knock-in mice were divided into groups of 3-4 mice each. Each mouse received a single intracerebroventricular (ICV) bolus of 300 μg of modified oligonucleotide. A group of 4 mice received a single ICV bolus with PBS as a negative control.
Sixteen weeks post treatment, mice were sacrificed and RNA was extracted from cortical brain tissue and spinal cord for quantitative real-time RT-PCR analysis of RNA expression of APOE using primer probe set RTS3073 (described herein above). APOE RNA levels were normalized to mouse Ppia. Mouse Ppia was amplified using primer probe set m_cyclo24 (described herein above). Results are presented as percent human APOE RNA relative to the amount of human APOE RNA in PBS treated animals, (% control). Each experiment is identified in separate tables below.

1693042: 5-10-5 MOE gapmer CTTGGTGAATCTTTATTAAA, linkages sssosszzzssssssssss (antisense e[5mC]*eT*eT*eGeG*dT*dG[ms]dA[ms]dA[ms]dT*d[5mC]*dT*dT*dT*dA*eT*eT*eA*eA*eA) [compound 1693042]
APOE RNA (% control) Cortex (human APOE RNA [1]): 77 % control
APOE RNA (% control) Spinal Cord (human APOE RNA [1]): 81 % control
APOE RNA (% control) Cortex (human APOE RNA [2]): 90 % control
APOE RNA (% control) Spinal Cord (human APOE RNA [2]): 65 % control

1652903: 6-10-4 MOE gapmer ACTTGGTGAATCTTTATTAA, linkages sooooossssssssssoss (antisense eA*e[5mC]eTeTeGeGdT*dG*dA*dA*dT*d[5mC]*dT*dT*dT*dA*eTeT*eA*eA) [compound 1652903]
APOE RNA (% control) Cortex (human APOE RNA [1]): 49 % control
APOE RNA (% control) Spinal Cord (human APOE RNA [1]): 19 % control
APOE RNA (% control) Cortex (human APOE RNA [2]): 87 % control
APOE RNA (% control) Spinal Cord (human APOE RNA [2]): 39 % control

1693043: 5-10-5 MOE gapmer CTTGGTGAATCTTTATTAAA, linkages sssoszzzzssssssosss (antisense e[5mC]*eT*eT*eGeG*dT[ms]dG[ms]dA[ms]dA[ms]dT*d[5mC]*dT*dT*dT*dA*eTeT*eA*eA*eA) [compound 1693043]
APOE RNA (% control) Cortex (human APOE RNA [1]): 89 % control
APOE RNA (% control) Spinal Cord (human APOE RNA [1]): 83 % control
APOE RNA (% control) Cortex (human APOE RNA [2]): 80 % control
APOE RNA (% control) Spinal Cord (human APOE RNA [2]): 73 % control

1681021: 5-10-5 MOE gapmer GGTGAATCTTTATTAAACTA, linkages zsssszsssszzssssssz (antisense eG[ms]eG*eT*eG*eA*dA[ms]dT*d[5mC]*dT*dT*dT[ms]dA[ms]dT*dT*dA*eA*eA*e[5mC]*eT[ms]eA) [compound 1681021]
APOE RNA (% control) Cortex (human APOE RNA [1]): 55 % control
APOE RNA (% control) Spinal Cord (human APOE RNA [1]): 68 % control
APOE RNA (% control) Cortex (human APOE RNA [2]): 91 % control
APOE RNA (% control) Spinal Cord (human APOE RNA [2]): 40 % control

1681003: 5-10-5 MOE gapmer GGTGAATCTTTATTAAACTA, linkages soooszsssszzszsooss (antisense eG*eGeTeGeA*dA[ms]dT*d[5mC]*dT*dT*dT[ms]dA[ms]dT*dT[ms]dA*eAeAe[5mC]*eT*eA) [compound 1681003]
APOE RNA (% control) Cortex (human APOE RNA [1]): 90 % control
APOE RNA (% control) Spinal Cord (human APOE RNA [1]): 48 % control
APOE RNA (% control) Cortex (human APOE RNA [2]): 106 % control
APOE RNA (% control) Spinal Cord (human APOE RNA [2]): 61 % control

1681007: 5-10-5 MOE gapmer GGTGAATCTTTATTAAACTA, linkages zsssszsssszzszssszz (antisense eG[ms]eG*eT*eG*eA*dA[ms]dT*d[5mC]*dT*dT*dT[ms]dA[ms]dT*dT[ms]dA*eA*eA*e[5mC][ms]eT[ms]eA) [compound 1681007]
APOE RNA (% control) Cortex (human APOE RNA [1]): 71 % control
APOE RNA (% control) Spinal Cord (human APOE RNA [1]): 47 % control
APOE RNA (% control) Cortex (human APOE RNA [2]): 96 % control
APOE RNA (% control) Spinal Cord (human APOE RNA [2]): 67 % control

1693050: 5-10-5 MOE gapmer TTGGTGAATCTTTATTAAAC, linkages soosszzzsssssssosss (antisense eT*eTeGeG*eT*dG[ms]dA[ms]dA[ms]dT*d[5mC]*dT*dT*dT*dA*dT*eTeA*eA*eA*e[5mC]) [compound 1693050]
APOE RNA (% control) Cortex (human APOE RNA [1]): 77 % control
APOE RNA (% control) Spinal Cord (human APOE RNA [1]): 63 % control
APOE RNA (% control) Cortex (human APOE RNA [2]): 100 % control
APOE RNA (% control) Spinal Cord (human APOE RNA [2]): 63 % control

1693048: 5-10-5 MOE gapmer CTTGGTGAATCTTTATTAAA, linkages ssssszzzzssssszosss (antisense e[5mC]*eT*eT*eG*eG*dT[ms]dG[ms]dA[ms]dA[ms]dT*d[5mC]*dT*dT*dT*dA[ms]eTeT*eA*eA*eA) [compound 1693048]
APOE RNA (% control) Cortex (human APOE RNA [1]): 97 % control
APOE RNA (% control) Spinal Cord (human APOE RNA [1]): 87 % control
APOE RNA (% control) Cortex (human APOE RNA [2]): 105 % control
APOE RNA (% control) Spinal Cord (human APOE RNA [2]): 71 % control

1693049: 5-10-5 MOE gapmer CTTGGTGAATCTTTATTAAA, linkages ssssszzzzssssszssss (antisense e[5mC]*eT*eT*eG*eG*dT[ms]dG[ms]dA[ms]dA[ms]dT*d[5mC]*dT*dT*dT*dA[ms]eT*eT*eA*eA*eA) [compound 1693049]
APOE RNA (% control) Cortex (human APOE RNA [1]): 101 % control
APOE RNA (% control) Spinal Cord (human APOE RNA [1]): 96 % control
APOE RNA (% control) Cortex (human APOE RNA [2]): 93 % control
APOE RNA (% control) Spinal Cord (human APOE RNA [2]): 81 % control

1681004: 5-10-5 MOE gapmer GGTGAATCTTTATTAAACTA, linkages ssooszsssszzszsooss (antisense eG*eG*eTeGeA*dA[ms]dT*d[5mC]*dT*dT*dT[ms]dA[ms]dT*dT[ms]dA*eAeAe[5mC]*eT*eA) [compound 1681004]
APOE RNA (% control) Cortex (human APOE RNA [1]): 120 % control
APOE RNA (% control) Spinal Cord (human APOE RNA [1]): 89 % control
APOE RNA (% control) Cortex (human APOE RNA [2]): 127 % control
APOE RNA (% control) Spinal Cord (human APOE RNA [2]): 61 % control

1693041: 5-10-5 MOE gapmer CTTGGTGAATCTTTATTAAA, linkages ssossszzzssssssosss (antisense e[5mC]*eT*eTeG*eG*dT*dG[ms]dA[ms]dA[ms]dT*d[5mC]*dT*dT*dT*dA*eTeT*eA*eA*eA) [compound 1693041]
APOE RNA (% control) Cortex (human APOE RNA [1]): 75 % control
APOE RNA (% control) Spinal Cord (human APOE RNA [1]): 74 % control
APOE RNA (% control) Cortex (human APOE RNA [2]): 84 % control
APOE RNA (% control) Spinal Cord (human APOE RNA [2]): 85 % control

1693085: 6-10-4 MOE gapmer TTGGTGAATCTTTATTAAAC, linkages ssssszzzsssszzsssss (eT*eT*eG*eG*eT*eG[ms]dA[ms]dA[ms]dT*d[5mC]*dT*dT*dT[ms]dA[ms]dT*dT*eA*eA*eA*e[5mC]) [compound 1693085]
APOE RNA (% control) Cortex (human APOE RNA [1]): 86 % control
APOE RNA (% control) Spinal Cord (human APOE RNA [1]): 79 % control
APOE RNA (% control) Cortex (human APOE RNA [2]): 93 % control
APOE RNA (% control) Spinal Cord (human APOE RNA [2]): 71 % control

1693051: 5-10-5 MOE gapmer TTGGTGAATCTTTATTAAAC, linkages ssosszzzsssssssosss (antisense eT*eT*eGeG*eT*dG[ms]dA[ms]dA[ms]dT*d[5mC]*dT*dT*dT*dA*dT*eTeA*eA*eA*e[5mC]) [compound 1693051]
APOE RNA (% control) Cortex (human APOE RNA [1]): 114 % control
APOE RNA (% control) Spinal Cord (human APOE RNA [1]): 76 % control
APOE RNA (% control) Cortex (human APOE RNA [2]): 97 % control
APOE RNA (% control) Spinal Cord (human APOE RNA [2]): 79 % control

1693082: 6-10-4 MOE gapmer TTGGTGAATCTTTATTAAAC, linkages ssssoozzszssszsssss (eT*eT*eG*eG*eTeGdA[ms]dA[ms]dT*d[5mC][ms]dT*dT*dT*dA[ms]dT*dT*eA*eA*eA*e[5mC]) [compound 1693082]
APOE RNA (% control) Cortex (human APOE RNA [1]): 113 % control
APOE RNA (% control) Spinal Cord (human APOE RNA [1]): 54 % control
APOE RNA (% control) Cortex (human APOE RNA [2]): 81 % control
APOE RNA (% control) Spinal Cord (human APOE RNA [2]): 72 % control

1693044: 5-10-5 MOE gapmer CTTGGTGAATCTTTATTAAA, linkages sssoszzzzssssssssss (antisense e[5mC]*eT*eT*eGeG*dT[ms]dG[ms]dA[ms]dA[ms]dT*d[5mC]*dT*dT*dT*dA*eT*eT*eA*eA*eA) [compound 1693044]
APOE RNA (% control) Cortex (human APOE RNA [1]): 86 % control
APOE RNA (% control) Spinal Cord (human APOE RNA [1]): 95 % control
APOE RNA (% control) Cortex (human APOE RNA [2]): 98 % control
APOE RNA (% control) Spinal Cord (human APOE RNA [2]): 63 % control

1693039: 5-10-5 MOE gapmer CTTGGTGAATCTTTATTAAA, linkages sssosszzzssssssooss (antisense e[5mC]*eT*eT*eGeG*dT*dG[ms]dA[ms]dA[ms]dT*d[5mC]*dT*dT*dT*dA*eTeTeA*eA*eA) [compound 1693039]
APOE RNA (% control) Cortex (human APOE RNA [1]): 90 % control
APOE RNA (% control) Spinal Cord (human APOE RNA [1]): 71 % control
APOE RNA (% control) Cortex (human APOE RNA [2]): 127 % control
APOE RNA (% control) Spinal Cord (human APOE RNA [2]): 99 % control

1693084: 6-10-4 MOE gapmer TTGGTGAATCTTTATTAAAC, linkages ssssszzzszsszzsssss (eT*eT*eG*eG*eT*eG[ms]dA[ms]dA[ms]dT*d[5mC][ms]dT*dT*dT[ms]dA[ms]dT*dT*eA*eA*eA*e[5mC]) [compound 1693084]
APOE RNA (% control) Cortex (human APOE RNA [1]): 72 % control
APOE RNA (% control) Spinal Cord (human APOE RNA [1]): 115 % control
APOE RNA (% control) Cortex (human APOE RNA [2]): 89 % control
APOE RNA (% control) Spinal Cord (human APOE RNA [2]): 86 % control
